A short description of data set [1]: Inhibition of hedgehog signalling in mouse NIH3T3 cells stably transfected with Gli-luciferase construct incubated for 48 hrs by dual luciferase reporter gene assay. Particulars: NIH3T3, 48 h. The data set is classed as cell-based. In general terms: Reporter assays use an easily measured gene product as a stand-in for the process of interest.
Data set [2] can be described thus: AUC (0 to t) in Sprague-Dawley rat at 1 mg/kg, iv measured during 2 mins to 24 hrs period post dose by LC-MS/MS method. Particulars: in vivo. The format is ADME, organism-based. More on the design: time 0.033-24 hr, dose 1 mg/kg, route intravenous.
Data set [3] is described as follows: Mean residence time (0 to t) in Sprague-Dawley rat at 1 mg/kg, iv measured during 2 mins to 24 hrs period post dose by LC/MS/MS method. The format is ADME, organism-based. Particulars: in vivo.
A short description of data set [4]: Apparent volume of distribution in Sprague-Dawley rat at 1 mg/kg, iv measured during 2 mins to 24 hrs period post dose by LC-MS/MS method. The format is ADME, organism-based. Particulars: in vivo, read-out: Vz.
Data set [5] in a line: Clearance in Sprague-Dawley rat at 1 mg/kg, iv measured during 2 mins to 24 hrs period post dose by LC-MS/MS method. The format is ADME, organism-based. Particulars: in vivo.
A short description of data set [6]: Cmax in Sprague-Dawley rat at 1 mg/kg, iv measured during 2 mins to 24 hrs period post dose by LC-MS/MS method. The format is ADME, organism-based. More on the design: dose 1 mg/kg, route intravenous. Particulars: in vivo.
Data set [7] is described as follows: Half life in Sprague-Dawley rat at 1 mg/kg, iv measured during 2 mins to 24 hrs period post dose by LC/MS/MS method. The data set is classed as ADME, organism-based. Particulars: in vivo.
The test system of the next data set is NIH3T3. In words: Potency index, ratio of vismodegib IC50 to compound IC50 for inhibition of hedgehog signalling in mouse NIH3T3 cells stably transfected with Gli-luciferase construct. The format is cell-based.

By IC50 is commonly meant the midpoint of a concentration-inhibition curve. Lower therefore signals inhibition by little substance. What is called AUC(0-t) is the area under the concentration-time curve up to a stated or last time point. Low readings indicate less exposure, high ones more exposure. For `CS(=O)(=O)c1ccc(C(=O)Nc2ccc(Cl)c(-c3ccccn3)c2)c(Cl)c1` [VISMODEGIB], the IC50 in data set [1] is 7.2 nM. Moreover, the area under the curve AUC(0-t) in data set [2] amounted to 2460 ng·h/mL.
Regarding `Cc1ccc(CN2CCCC2)cc1NC(=O)c1ccc(Nc2ncc(C(F)(F)F)c(-c3cnn(C)c3)n2)cc1`, the IC50 in data set [1] is 26.3 nM.
On to `Cc1ccc(CN(C)C)cc1NC(=O)c1ccc(Nc2ncc(C(F)(F)F)c(-c3ccc(OC(F)(F)F)cc3)n2)cc1`, for which the IC50 in data set [1] stood at 18.2 nM.
In the case of `Cc1ccc(CN2CCOCC2)cc1NC(=O)c1ccc(Nc2ncc(C(F)(F)F)c(-c3cnn(C)c3)n2)cc1`, the concentration for half-maximal inhibition (IC50) in data set [1] was found to be 24.5 nM.
Still for that read-out and setting: for `Cc1ccc(CN2CCOCC2)cc1NC(=O)c1ccc(Nc2ncc(C(F)(F)F)c(-c3ccc(C#N)cc3)n2)cc1` the value was 4.24 nM; for `Cc1ccc(CN2CCCCC2)cc1NC(=O)c1ccc(Nc2ncc(C(F)(F)F)c(-c3ccc(OC(F)(F)F)cc3)n2)cc1`, 3.12 nM; for `CCn1cc(-c2nc(Nc3ccc(C(=O)Nc4cc(CN5CCOCC5)ccc4C)cc3)ncc2C(F)(F)F)cn1`, 16.9 nM.
The same measure, in the same setting: for `O=C(c1ccc(Nc2ncc(C(F)(F)F)c(-c3ccc(OC(F)(F)F)nc3)n2)cc1)N1CCCC(N2CCOCC2)C1` (stereo unspecified) the value was greater than 500 nM.
As a reminder, the MRT last is the average time that molecules of a dose stay in the body. In general, clearance refers to the volume of plasma or blood freed of the substance per unit of time. A high value points to efficient removal. For orientation: Cmax means the highest concentration seen after dosing. What is called half-life is the time in which the quantity being followed falls by half. Low values mean rapid decline, high ones slow decline. With `Cc1ccc(CN2CCOCC2)cc1NC(=O)c1ccc(Nc2ncc(C(F)(F)F)c(-c3ccccn3)n2)cc1`, the MRT last in data set [3] was found to be 0.93 h. In data set [1], this compound registered an IC50 of 14.2 nM. In addition, the Vd in data set [4] was found to be 1.8 L/kg. The compound further gave a clearance in data set [5] of 20.1 mL/min/kg. Also, the highest level in data set [6] (Cmax) was 1420 ng/mL. Further, in data set [7], the half-life is 1.03 h. This compound yielded an AUC(0-t) in data set [2] of 826 ng·h/mL.
For the compound `Cc1ccc(CN2CCOCC2)cc1NC(=O)c1ccc(Nc2ncc(C(F)(F)F)c(-c3cccnc3)n2)cc1`, in data set [1], the concentration for half-maximal inhibition (IC50) stood at 56.2 nM.
On the same count and under the same terms, for `Cc1cnc(Nc2ccc(C(=O)Nc3c(C)cccc3C)cc2)nc1-c1ccc(OC(F)(F)F)cc1` the value was 1.3 nM; for `COc1ccc(-c2nc(Nc3ccc(C(=O)Nc4cc(CN5CCCC5)ccc4C)cc3)ncc2C(F)(F)F)cn1`, 9.35 nM; for `Cc1cccc(C)c1NC(=O)c1ccc(Nc2ncc(F)c(-c3ccc(OC(F)(F)F)cc3)n2)cc1`, 1.6 nM.
Regarding `CCN1CCN(Cc2ccc(C)c(NC(=O)c3ccc(Nc4ncc(C(F)(F)F)c(-c5ccc(OC(F)(F)F)cc5)n4)cc3)c2)CC1`, half-maximal inhibition in data set [1] (IC50) required 62.8 nM.
Turning to `Cc1ccc(CN2CCOCC2)cc1NC(=O)c1ccc(Nc2ncc(C(F)(F)F)c(-c3ccccc3)n2)cc1`, the MRT last in data set [3] amounted to 1.23 h. For the same compound, the IC50 in data set [1] came out at 102 nM. For the same compound, in data set [4], the Vd came out at 4.13 L/kg. In data set [5], this compound had a clearance of 20.9 mL/min/kg. Also, in data set [6], the concentration peaked (Cmax) at 1190 ng/mL. Besides, the half-life in data set [7] is 2.32 h. For the same compound, the area under the curve AUC(0-t) in data set [2] is 807 ng·h/mL.
`Cc1ccc(CN2CCCC2)cc1NC(=O)c1ccc(Nc2ncc(C(F)(F)F)c(-c3ccc(OC(F)(F)F)cc3)n2)cc1` displayed an IC50 in data set [1] of 4.23 nM.
Still for that read-out and setting: for `O=C(NC1CCN(C(=O)CO)CC1)c1ccc(Nc2ncc(C(F)(F)F)c(-c3ccc(OC(F)(F)F)nc3)n2)cc1` the value was greater than 500 nM.
Regarding `Cc1ccc(CN2CCOCC2)cc1NC(=O)c1ccc(Nc2ncc(C(F)(F)F)c(-c3ccc(OC(F)(F)F)cc3)n2)cc1`, the MRT last in data set [3] was 4.95 h. This compound returned an IC50 in data set [1] of 1.44 nM. Also, the Vd in data set [4] is 5.88 L/kg. Besides, the clearance in data set [5] is 7.82 mL/min/kg. Also, in data set [6], the Cmax was found to be 2220 ng/mL. In data set [7], this compound showed a half-life of 8.63 h. For the same compound, the Ratio IC50 in the data set with NIH3T3 stood at 5. The area under the curve AUC(0-t) in data set [2] is 1960 ng·h/mL.
In the case of `Cc1ccc(CN2CCN(C)CC2)cc1NC(=O)c1ccc(Nc2ncc(C(F)(F)F)c(-c3ccc(OC(F)(F)F)cc3)n2)cc1`, the MRT last in data set [3] amounted to 7.15 h. The compound further displayed a half-inhibitory concentration (IC50) in data set [1] of 5.19 nM. In data set [4], the Vd is 9.22 L/kg. Moreover, the clearance in data set [5] is 11.6 mL/min/kg. The compound further gave a Cmax in data set [6] of 844 ng/mL. The half-life in data set [7] is 9.25 h. The AUC(0-t) in data set [2] was 1240 ng·h/mL.
For `Cc1ccc(CN(C)C)cc1NC(=O)c1ccc(Nc2ncc(C(F)(F)F)c(-c3ccccc3)n2)cc1`, it took 24.9 nM to reach half-maximal inhibition in data set [1] (IC50).

Values taken from ChEMBL document CHEMBL3758112, “Synthesis and pharmacological evaluation of trifluoromethyl containing 4-(2-pyrimidinylamino)benzamides as Hedgehog signaling pathway inhibitors” (Bioorg Med Chem, 2016).
